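Compound exposure: 48 hours, 5 concentrations, 96-well plates. Here, GI50 denotes the concentration required for 50% inhibition of growth. At the TGI there is no net growth.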
Experiments:
Assay in all cases: DTP human tumour cell line panel, 48 h
[1] = system: SNB-75 CNS
[2] = system: NCI-H522 lung
[3] = system: OVCAR-5 ovarian
[4] = system: T-47D breast
[5] = system: HOP-92 NSCLC
[6] = system: ACHN renal
[7] = system: HCT-15 colon
[8] = system: HT29 colon
[9] = system: OVCAR-8 ovarian
[10] = system: SN12C renal
[11] = system: MDA-MB-231 breast
[12] = system: SR leukemia
[13] = system: OVCAR-4 ovarian
[14] = system: HCT-116 colon
[15] = system: A498 renal
[16] = system: U251 CNS
[17] = system: BT-549 breast
[18] = system: IGROV1 ovarian
[19] = system: TK-10 renal
[20] = system: KM12 colon
[21] = system: NCI-H23 lung
[22] = system: UO-31 renal
[23] = system: EKVX NSCLC
[24] = system: HS 578T breast
[25] = system: SF-539 CNS
[26] = system: MDA-MB-435
[27] = system: 786-0 renal
[28] = system: CAKI-1 renal
[29] = system: SF-295 CNS
[30] = system: MCF7 breast
[31] = system: SK-MEL-2 melanoma
[32] = system: RPMI-8226 leukemia
[33] = system: DU-145 prostate
[34] = system: OVCAR-3 ovarian
[35] = system: HL-60(TB) leukemia
[36] = system: CCRF-CEM leukemia
[37] = system: SNB-19 CNS
[38] = system: COLO 205 colon
[39] = system: PC-3 prostate
[40] = system: SK-OV-3 ovarian
[41] = system: MALME-3M melanoma
[42] = system: UACC-257 melanoma
[43] = system: HCC-2998 colon
[44] = system: A549 NSCLC
[45] = system: LOX IMVI melanoma
[46] = system: MOLT-4 leukemia
[47] = system: UACC-62 melanoma
[48] = system: K-562 leukemia
[49] = system: HOP-62 NSCLC
[50] = system: SF-268 CNS
[51] = system: SK-MEL-5 melanoma
[52] = system: M14 melanoma
[53] = system: SK-MEL-28 melanoma
[54] = system: NCI/ADR-RES ovarian
[55] = system: RXF 393 renal
[56] = system: SW-620 colon
[57] = system: NCI-H460 lung
[58] = system: NCI-H226 lung

## CC1=CC2C(C(O)CC3(C)C2CC(C)C32OCOC23COCO3)C2(C)C/C(=C/O)C(=O)C=C12 (centres undefined)
[1]
  GI50: 1.63 µM
  TGI: 3.03 µM
[2]
  GI50: 1.79 µM
  TGI: 3.47 µM
[3]
  GI50: 1.98 µM
  TGI: 3.92 µM
[4]
  GI50: 2.33 µM
  TGI: 5.73 µM
[5]
  GI50: 1.78 µM
  TGI: 3.45 µM
[6]
  GI50: 1.85 µM
  TGI: 3.45 µM
[7]
  GI50: 1.97 µM
  TGI: 5.07 µM
[8]
  GI50: 1.79 µM
  TGI: 5.01 µM
[9]
  GI50: 1.76 µM
  TGI: 3.73 µM
[10]
  GI50: 2.5 µM
  TGI: 6.39 µM
[11]
  GI50: 1.75 µM
  TGI: 3.49 µM
[12]
  GI50: 2.11 µM
  TGI: 4.45 µM
[13]
  GI50: 1.74 µM
  TGI: 3.83 µM
[14]
  GI50: 1.49 µM
  TGI: 2.97 µM
[15]
  GI50: 2.83 µM
  TGI: 14.8 µM
[16]
  GI50: 1.66 µM
  TGI: 3.27 µM
[17]
  GI50: 1.62 µM
  TGI: 3.17 µM
[18]
  GI50: 2.07 µM
  TGI: 4 µM
[19]
  GI50: 1.91 µM
  TGI: 3.59 µM
[20]
  GI50: 2.39 µM
  TGI: 4.77 µM
[21]
  GI50: 2 µM
  TGI: 3.83 µM
[22]
  GI50: 1.52 µM
  TGI: 3.04 µM
[23]
  GI50: 2.31 µM
  TGI: 7.48 µM
[24]
  GI50: 2.28 µM
  TGI: 5.72 µM
[25]
  GI50: 1.93 µM
  TGI: 3.64 µM
[26]
  GI50: 1.78 µM
  TGI: 3.64 µM
[27]
  GI50: 1.83 µM
  TGI: 3.55 µM
[28]
  GI50: 1.94 µM
  TGI: 3.8 µM
[29]
  GI50: 2.22 µM
  TGI: 5.34 µM
[30]
  GI50: 2.69 µM
  TGI: 10.1 µM
[31]
  GI50: 1.97 µM
  TGI: 3.8 µM
[32]
  GI50: 1.84 µM
  TGI: 5.15 µM
[33]
  GI50: 2.57 µM
  TGI: 5.81 µM
[34]
  GI50: 2.05 µM
  TGI: 3.59 µM
[35]
  GI50: 2.1 µM
  TGI: 4.63 µM
[36]
  GI50: 1.05 µM
  TGI: 3.61 µM
[37]
  GI50: 3.22 µM
  TGI: 12 µM
[38]
  GI50: 1.97 µM
  TGI: 3.47 µM
[39]
  GI50: 1.71 µM
  TGI: 4.4 µM
[40]
  GI50: 2.73 µM
  TGI: 6.42 µM
[41]
  GI50: 1.84 µM
  TGI: 3.58 µM
[42]
  GI50: 1.82 µM
  TGI: 3.86 µM
[43]
  GI50: 1.91 µM
  TGI: 3.38 µM
[44]
  GI50: 3.02 µM
  TGI: 10.7 µM
[45]
  GI50: 1.75 µM
  TGI: 3.31 µM
[46]
  GI50: 1.97 µM
  TGI: 4.9 µM
[47]
  GI50: 1.76 µM
  TGI: 3.83 µM
[48]
  GI50: 2.09 µM
  TGI: 5.73 µM
[49]
  GI50: 1.99 µM
  TGI: 3.52 µM
[50]
  GI50: 2.03 µM
  TGI: 3.84 µM
[51]
  GI50: 1.74 µM
  TGI: 3.16 µM
[52]
  GI50: 1.66 µM
  TGI: 3.51 µM
[53]
  GI50: 1.87 µM
  TGI: 3.51 µM
[54]
  GI50: 2.28 µM
  TGI: 4.8 µM
[55]
  GI50: 1.81 µM
  TGI: 3.31 µM
[56]
  GI50: 1.65 µM
  TGI: 3.32 µM

## Cn1nc2ccc(Nc3cc(=O)[nH]c4ccc5nn(C)nc5c34)cc2n1
[1]
  TGI: > 100 µM
[2]
  TGI: > 100 µM
[3]
  TGI: > 100 µM
[4]
  TGI: > 100 µM
[5]
  TGI: > 100 µM
[6]
  TGI: > 100 µM
[7]
  TGI: > 100 µM
[8]
  TGI: > 100 µM
[9]
  TGI: > 100 µM
[10]
  TGI: > 100 µM
[57]
  TGI: > 100 µM
[11]
  TGI: > 100 µM
[12]
  TGI: > 100 µM
[13]
  TGI: > 100 µM
[14]
  TGI: > 100 µM
[15]
  TGI: > 100 µM
[16]
  TGI: > 100 µM
[17]
  TGI: > 100 µM
[18]
  TGI: > 100 µM
[19]
  TGI: > 100 µM
[20]
  TGI: > 100 µM
[21]
  TGI: > 100 µM
[22]
  TGI: > 100 µM
[23]
  TGI: > 100 µM
[24]
  TGI: > 100 µM
[25]
  TGI: > 100 µM
[26]
  TGI: > 100 µM
[27]
  TGI: > 100 µM
[28]
  TGI: > 100 µM
[58]
  TGI: > 100 µM
[29]
  TGI: > 100 µM
[30]
  TGI: > 100 µM
[31]
  TGI: > 100 µM
[33]
  TGI: > 100 µM
[34]
  TGI: > 100 µM
[36]
  TGI: > 100 µM
[37]
  TGI: > 100 µM
[38]
  TGI: > 100 µM
[39]
  TGI: > 100 µM
[40]
  TGI: > 100 µM
[41]
  TGI: > 100 µM
[42]
  TGI: > 100 µM
[43]
  TGI: > 100 µM
[44]
  TGI: > 100 µM
[46]
  TGI: > 100 µM
[47]
  TGI: > 100 µM
[48]
  TGI: > 100 µM
[49]
  TGI: > 100 µM
[50]
  TGI: > 100 µM
[51]
  TGI: > 100 µM
[52]
  TGI: > 100 µM
[53]
  TGI: > 100 µM
[54]
  TGI: > 100 µM
[55]
  TGI: > 100 µM
[56]
  TGI: > 100 µM

## COC(=O)C1CC2(C)C=CC1N(C(=O)OCc1ccccc1)C2 (centres undefined)
[1]
  TGI: > 100 µM
[2]
  TGI: > 100 µM
[3]
  TGI: > 100 µM
[4]
  TGI: > 100 µM
[6]
  TGI: > 100 µM
[7]
  TGI: > 100 µM
[8]
  TGI: > 100 µM
[9]
  TGI: > 100 µM
[10]
  TGI: > 100 µM
[57]
  TGI: > 100 µM
[11]
  TGI: > 100 µM
[12]
  TGI: > 100 µM
[13]
  TGI: > 100 µM
[14]
  TGI: > 100 µM
[15]
  TGI: > 100 µM
[16]
  TGI: > 100 µM
[17]
  TGI: > 100 µM
[18]
  TGI: > 100 µM
[19]
  TGI: > 100 µM
[20]
  TGI: > 100 µM
[21]
  TGI: > 100 µM
[22]
  TGI: > 100 µM
[23]
  TGI: > 100 µM
[24]
  TGI: > 100 µM
[25]
  TGI: > 100 µM
[26]
  TGI: > 100 µM
[27]
  TGI: > 100 µM
[28]
  TGI: > 100 µM
[58]
  TGI: > 100 µM
[29]
  TGI: > 100 µM
[30]
  TGI: > 100 µM
[31]
  TGI: > 100 µM
[32]
  TGI: > 100 µM
[33]
  TGI: > 100 µM
[34]
  TGI: > 100 µM
[35]
  TGI: 70.7 µM
[36]
  TGI: > 100 µM
[37]
  TGI: > 100 µM
[38]
  TGI: > 100 µM
[39]
  TGI: > 100 µM
[40]
  TGI: > 100 µM
[41]
  TGI: > 100 µM
[42]
  TGI: > 100 µM
[43]
  TGI: > 100 µM
[44]
  TGI: > 100 µM
[45]
  TGI: > 100 µM
[46]
  TGI: > 100 µM
[47]
  TGI: > 100 µM
[48]
  TGI: > 100 µM
[49]
  TGI: > 100 µM
[50]
  TGI: > 100 µM
[51]
  TGI: > 100 µM
[52]
  TGI: > 100 µM
[53]
  TGI: > 100 µM
[54]
  TGI: > 100 µM
[55]
  TGI: > 100 µM
[56]
  TGI: > 100 µM
